According to article PMC5732813, “Novel piplartine-containing ruthenium complexes: synthesis, cell growth inhibition, apoptosis induction and ROS production on HCT116 cells” (Oncotarget, 2017):

Columns and labels:
[1] = system: BAD KO SV40 MEF (BAD gene knockout immortalized mouse embryonic fibroblast); assay: Cytotoxic activity, alamar blue assay, BAD KO SV40 MEF; assay type: cell-based; conditions: Mus musculus, Fibroblast; BAD KO SV40 MEF, 72 h incubation, alamar blue; read-out: IC50
Source text: (§1) HCT116 (human colon carcinoma), HepG2 (human hepatocellular carcinoma), HSC-3 (human oral squamous cell carcinoma), SCC-4 (human oral squamous cell carcinoma), SCC-9 (human oral squamous cell carcinoma), HL-60 (human promyelocytic leukemia), K-562 (human chronic myelogenous leukemia), B16-F10 (murine melanoma), MRC-5 (human lung fibroblast), WT SV40 MEF (wild-type immortalized mouse embryonic fibroblast) and BAD KO SV40 MEF (BAD gene knockout immortalized mouse embryonic fibroblast) cell lines were obtained from the American Type Culture Collection (ATCC, Manassas, VA, USA) and cultured in RPMI-1640 medium (Gibco-BRL, Gaithersburg, MD, USA) with 10% fetal bovine serum (Life, Carlsbad, CA, USA), 2 mM L-glutamine (Vetec Química Fina, Duque de Caxias, RJ, Brazil) and 50 μg/mL gentamycin (Life, Carlsbad, CA, USA). Adherent cells were collected by treatment with 0.25% trypsin EDTA solution (Gibco-BRL, Gaithersburg, MD, USA). All cell lines were cultured in flasks at 37°C in 5% CO2 and sub-cultured every 3-4 days to maintain exponential growth.
(§2) Cell viability was quantified using the alamar blue assay, according to Ahmed et al.. Cells were inserted in 96-well plates for all experiments (7 x 10^4 cells/mL for adherent cells or 3 x 10^5 cells/mL for suspended cells in 100 μL of medium). […] Negative controls received the vehicle that was used for diluting the compounds tested.

[2] = system: WT SV40 MEF (wild-type immortalized mouse embryonic fibroblast); assay: Cytotoxic activity, alamar blue assay, WT SV40 MEF; assay type: cell-based; conditions: Mus musculus, Fibroblast; WT SV40 MEF, 72 h incubation, alamar blue; read-out: IC50
Source text: as §1, §2

[3] = system: SCC-4 (human oral squamous cell carcinoma); assay: Cytotoxic activity, alamar blue assay, SCC-4; assay type: cell-based; conditions: SCC-4, 72h of incubation, alamar blue; with 95% confidence interval
Source text: as §1, §2

[4] = system: HL-60 (human promyelocytic leukemia); assay: Cytotoxic activity, alamar blue assay, HL-60; assay type: cell-based; conditions: HL-60, 72h of incubation, alamar blue; with 95% confidence interval
Source text: as §1, §2

[5] = system: cancer multicellular spheroids formed from HCT116 cells; assay: 3D multicellular spheroids culture, alamar blue assay; assay type: cell-based, human; conditions: 3D spheroids of HCT116, 72 h treatment, alamar blue; read-out: IC50
Procedure: as §2
HCT116 cells were cultivated in 3D multicellular spheroids. Briefly, 100 μL of a solution of cells (0.5 x 10^6 cells/mL) were inserted in 96-well plate with a cell-repellent surface (Greiner Bio-One, Kremsmünster, Austria) and cultured in RPMI 1640 medium with 10% fetal bovine serum, 2 mM glutamine, 3% matrigel (BD Biosciences, San Jose, CA, EUA) and 50 μg/mL gentamycin at 37°C with 5% CO2. […] Negative control received the vehicle that was used for diluting the compounds tested. In the end of the experiment, morphological changes were examined by light microscopy (Olympus BX41, Tokyo, Japan) using Image-Pro software (Media Cybernetics, Inc. Silver Spring, USA) and the cell viability was determined by alamar blue assay as described above.

[6] = system: HCT116 cells; assay: Internucleosomal DNA fragmentation and cell cycle distribution (DNA content, flow cytometry); assay type: cell-based, human; conditions: HCT116, 3 μM, mean ± S.E.M.
Procedure: Cells were harvested in a permeabilization solution containing 0.1% triton X-100 (Sigma Chemical Co. St Louis, MO, USA), 2 μg/mL propidium iodide (Sigma Chemical Co. St Louis, MO, USA), 0.1% sodium citrate and 100 μg/mL RNAse (Sigma Chemical Co. St Louis, MO, USA) and incubated in the dark for 15 min at room temperature.

[7] = system: MRC-5 (human lung fibroblast); assay: Cytotoxic activity, alamar blue assay, MRC-5 non-cancer cells; assay type: cell-based; conditions: MRC-5 non-cancer cells, 72h of incubation, alamar blue; with 95% confidence interval; read-out: IC50
Source text: as §1, §2

[8] = system: PBMC (human peripheral blood mononuclear cells); assay: Cytotoxic activity, alamar blue assay, PBMC non-cancer cells; assay type: cell-based; conditions: PBMC non-cancer cells, 72h of incubation, alamar blue; with 95% confidence interval; read-out: IC50
Procedure: PBMCs were washed and resuspended at a concentration of 3 x 10^5 cells/mL in RPMI 1640 medium with 20% fetal bovine serum, 2 mM glutamine and 50 μg/mL gentamycin at 37°C with 5% CO2. […] The Research Ethics Committee of the Oswaldo Cruz Foundation (Salvador, Bahia, Brazil) approved the experimental protocol (# 031019/2013). All participants signed a written informed consent to participate in the study.
as §2

| Structure (SMILES) | IC50 [1] | IC50 [2] | IC50 [3] | IC50 [4] | IC50 [5] | DNA content (%) S ([6]; 24h) | DNA content (%) S ([6]; 48h) | IC50 [7] | IC50 [8] |
| --- | --- | --- | --- | --- | --- | --- | --- | --- | --- |
| O=c1[nH]cc(F)c(=O)[nH]1 [5-fluorouracil] | 7.3 µM | 1.7 µM |  |  |  |  |  |  |  |
| O=C1[O][Pt]2([NH][C@@H]3CCCC[C@H]3[NH]2)[O]C1=O [Oxaliplatin] |  |  | 7.7 µM | 0.6 µM | 9.3 µM | 16.9 ± 2.0% | 17.4 ± 1.9% | 1.3 µM | 9.4 µM |
